Test results taken from patent US7566812B2, “Transgenic mouse models of hepatitis C virus (HCV) and identification of HCV therapeutics” (priority 2004, dated 2009).

Tests used:
NS3/4A-Tg mice = assay: Survival after TNF-α/D-Gal challenge, NS3/4A transgenic mice; assay type: in vivo, mouse
Description: (§1) This Example describes several of the approaches used to induce hepatic injury in the NS3/4A-Tg mice and the techniques used to analyze the data. All NS3/4A-Tg or wild-type (Wt) mice used in these experiments were male and/or females between 6-12 weeks old. All groups of mice contained five to ten mice. Comparisons were done in age matched animals, excluding an age dependent difference when comparing groups. For the carbon tetrachloride (CCl4) treatment, CCl4 was diluted in 100 μL olive oil and administered intraperitoneal (i.p.) as a single dose to NS3/4A-Tg and Wt mice. Each mouse was treated with 10 mg (0.5 g/kg) CCl4 (Sigma). Serum from individual mice was collected at various time intervals (12, 24, 48, and 72 hours) after CCl4-treatment by retro-orbital bleeding. Serum alanine aminotransferase (ALT) values were measured to evaluate the extent of liver injury. […] Serum ALT values were measured to evaluate the extent of liver injury. […] Serum ALT values were measured to evaluate the extent of liver injury. […] Serum ALT values were measured to evaluate the extent of liver injury. […] Serum ALT values were measured to evaluate the extent of liver injury.
(§2) SB203580 (Calbiochem) was dissolved/diluted in sterile dH2O and administered to mice intra orally (i.o.). […] The following Example teaches how the above data were statistically analyzed.

wild-type mice = assay: Survival after TNF-α/D-Gal challenge, wild-type mice; assay type: in vivo, mouse
Description: as §1, §2

HCV = assay: Treatment of a patient with HCV related complications; assay type: in vivo; conditions: repeated course of treatment
Description: A patient in need of treatment of HCV related complications is identified by routine methods. The patient is administered an amount of SB203580, based on the particular patient and the severity of the HCV symptoms. Following a repeated course of treatment, if required, the patient's HCV related symptoms are reduced. In some applications, the reduction of viral lode or another indicator for HCV infection is measured. The next example describes more transgenic organisms that contain the constructs described herein.

[1] = system: NS3/4A-SP2/0 tumor cell line; assay: In vivo tumor growth assay in immunized Balb/c mice, NS3/4A-SP2/0 cells; conditions: 3 mg ribavirin with 100, 10 or 1 micrograms coNS3/4A, single immunization
Description: To study whether the constructs described above were capable of eliciting a cell-mediated response against NS3, an in vivo tumor growth assay was performed. To this end, an SP2/0 tumor cell line (SP2/0-Ag14 myeloma cell line (H-2^d)) stably transfected with the NS3/4A gene was made. The SP2/0 cells were maintained in DMEM medium supplemented with 10% fetal calf serum (FCS; Sigma Chemicals, St. Louis, Mo.), 2 mM L-Glutamine, 10 mM HEPES, 100 U/ml Penicillin and 100 μg/ml Streptomycin, 1 mM non-essential amino acids, 50 μM β-mercaptoethanol, 1 mM sodium pyruvate (GIBCO-BRL, Gaithesburgh, Md.). The pcDNA3.1 plasmid containing the NS3/4A gene was linearized by BglII digestion. […]
Transfected cells were cloned by limiting dilution and selected by addition of 800 μg geneticin (G418)/ml complete DMEM medium after 14 days. […] Bound murine serum antibodies were detected by an alkaline phosphatase conjugated goat anti-mouse IgG (Sigma cell products, Saint Louis, Mo. USA) followed by addition of the substrate pNPP (1 tablet/5 ml of 1 M Diethanolamin buffer with 0.5 mM MgCl2). […] Absorbance was then read at 405 nm.
The in vivo growth kinetics of the SP2/0 and the NS3/4A-SP2/0 cell lines were then evaluated in Balb/c mice. […] Each day the size of the tumor was determined through the skin. […]

[2] = system: NS3/4A-EL-4 tumor cell line; assay: Tumor challenge model with NS3/4A-EL-4 tumor cells; assay type: in vivo; conditions: C57BL/6 mice
Text: To define the in vivo functional anti-tumor effector cell population, CD4+ or CD8+ T cells were depleted in mice immunized with the coNS3/4A plasmid one week prior to, and during, challenge with the NS3/4A-EL-4 tumor cell line. […] Thus, NS3/4A-specific CD8+ CTLs are the major protective cell at the effector stage in the in vivo model for inhibition of tumor growth.
The tumor challenge model was used to evaluate how effective the different immunogens were in priming a protective immunity against growth of NS3/4A-EL4 tumor cells in vivo. To ensure that the effectiveness of the priming event was studied, all mice were immunized only once. Vectors containing NS3/4A were able to rapidly prime protective immune responses as compared to the immunized with the empty pVAX plasmid (p<0.05, ANOVA; FIG. 10). […] The next example examines the prerequisites for priming of CD8+ CTL.
To further clarify the prerequisites for priming of CD8+ CTL additional experiments were performed. First, C57BL/6 mice immunized with the NS3-derived CTL peptide were not protected against growth of NS3/4A-EL-4 tumors. […] To further characterize the priming event, groups of B cell (μMT; Kitamura D., et al., Nature, 350: 423-426 (1991)) or CD4 deficient C57BL/6 mice (Rahemtulla A et al., Nature, 353:180-184 (1991)) were immunized once with the coNS3/4A gene using gene gun, and challenged two weeks later (FIG. 10). […]

[3] = 0.5 mg (25 mg/kg) i.o. thirty minutes prior to rm TNF-α/D-Gal

## C[S+]([O-])c1ccc(-c2nc(-c3ccncc3)c(-c3ccc(F)cc3)[nH]2)cc1 (stereo not shown) [SB203580]
NS3/4A-Tg mice; [3]
  TNF-alpha sensitivity phenotype (survival) of NS3/4A transgenic mice: reverted to TNF-alpha sensitive phenotype
wild-type mice; [3]
  impact on the survival rate of wild-type mice provided TNF-alpha: no significant
HCV
  patient's HCV related symptoms: reduced

## NC(=O)c1ncn([C@@H]2O[C@H](CO)[C@@H](O)[C@H]2O)n1 [ribavirin, 1-β-D-ribofuranosyl-1,2,4-triazole-3-carboxamide]
[1]
  effect of the adjuvant on the effectiveness of the initial coNS3/4A immunization (tumor size): dramatically increased the effectiveness

## GAVQNEVTL (Artificial Peptide, NS3/4A H-2D Binding Peptide) [NS3-derived CTL peptide]
[2]
  protection against growth of NS3/4A-EL-4 tumors: not protected

## TNF-α
NS3/4A-Tg mice; 5 μg/kg, NS3/4A-Tg mice
  survival of the lethal TNF-α dose: all NS3/4A-Tg mice survived
wild-type mice; 5 μg/kg, non-transgenic mice, within 24 hours
  mice killed: 80%
